# Columns and labels:
# [1] = test system: MDA-MB-231 breast cancer cells; experiment: DNA damage by γH2AX (flow cytometry, immunoblot); type: cell-based, human; conditions: MDA-MB-231, 1 μM, 24 h; for Proportion of cells with high γ-H2AX phosphorylation: basal level 1 %
# Method: (§1) As described in detail previously, cells (10^6 cells per well) were grown in 6 well plates and incubated with inhibitors for the indicated time. Cells were harvested, washed and resuspended in 1 ml of blocking buffer (1 % FCS/PBS), and incubated with antibody to γ-H2AX (phosphorylated Ser139) (Millipore, USA) in blocking buffer (1:500 dilution) at room temperature for 2 h. Cells were washed, incubated with goat anti-mouse Alex 488 Fab fragment secondary antibody (Invitrogen, New Zealand) (1:400 in blocking buffer for 1 h, at room temperature; dark), washed and resuspended in 1 ml of blocking buffer containing RNase (1 μg/ml) and propidium iodide (PI) (10 μg/ml) for 30 min at room temperature. Cells were analysed in a Becton–Dickinson LSRII and profiles were analysed with ModFit LT 3 software.
# As described in detail previously cells were grown to log-phase, washed twice with ice-cold PBS, and lysed in SDS lysis buffer according to the manufacturer’s protocol (Cell Signalling Technology, Danvers, MA, USA). Protein concentration was quantified using the BCA protein assay reagent bicinchoninic acid (Sigma, New Zealand). Cell lysates containing 25 μg of protein were separated by SDS-PAGE and transferred to PVDF membranes (Millipore). Membranes were immunoblotted with antibodies against to γ-H2AX (phosphorylated Ser139) (Millipore, USA), and actin (Millipore), using SuperSignalWest Pico (Thermo Scientific, Waltham,MA, USA) chemiluminescence reagents. Antibody reactivity was visualized using the chemiluminescence detection system by Fujifilm Las-3000.
# [2] = test system: breast cancer cells; design: method as in doi:10.1039/C3MD00290J; conditions: earlier flow cytometry; cited from earlier work
# [3] = test system: A431 cells; experiment: Calcium flux assay (EGF-induced, Fluo-4); type: cell-based, human; conditions: pre-treatment at 25 and 50 μM, EGF 400 ng/ml
# Method: A431 cells were plated onto 96 wells until confluent. Cells were loaded with 5 µM Fluo-4 acetoxymethyl ester with 0.003 % pluronic acid and 2.5 mM Probenecid (Molecular Probes) for 30 min at 37 °C, then washed with buffer and incubated for another 30 min. Epidermal growth factor (EGF) (400 ng/ml) was used as an activator. EGF alone or with derivative 3 were added to A431 cells to determine the inhibitory activity on calcium flux of derivative 3, and compared with buffer (negative control) and 1 µg/ml ionomycin (positive control). Fluorescence signal was recorded from the bottom of the plate at 1 s intervals (3 wells per/s) using an EnSpire 2300 Multimode Plate Reader (Perkin-Elmer) at excitation wavelength of 494 nm and emission wavelength of 506 nm (25 °C, 3 mm measurement height, 50 flashes). Baseline fluorescence was recorded for 10 s, after which buffer alone, EGF alone or with drug, was added and fluorescence was captured for a further 45 s. Next, ionomycin was added and fluorescence was recorded for another 45 s. Three independent experiments were performed.
# [4] = test system: MDA-MB-468; experiment: Cell proliferation assay (3H-thymidine incorporation, 3 days); type: cell-based; conditions: Homo sapiens, 72 h; MDA-MB-468, thymidine incorporation, 3 days treatment; read-out: IC50 (50 % inhibition of growth)
# Method: (§2) Culture conditions have been described in detail previously; human breast cancer cell lines MCF-7, T47D, MDA-MB-468, MDA-MB-231, human epithelial carcinoma cell line A431 and human colon cancer cell line HCT116 were purchased from the American Type Culture Collection (ATCC). Cells were grown in α-MEM containing 5 % fetal calf serum, insulin/transferrin/selenium supplement, added according to the manufacturer’s instructions (Roche), as well as penicillin/streptomycin (100 U/ml and 100 μg/ml, respectively).
# (§3) As described in detail previously, cell proliferation was measured using a thymidine incorporation assay by seeding 3000 cells in each well using 96 well plates with varying concentrations of inhibitors for 3 days. Experiments were performed in triplicate with a minimum of two experimental repeats. Briefly, ^3H-thymidine (0.04 µCi) was added to each well and incubated for 5 h, after which the cells were gathered onto glass fibre filters using an automated TomTec harvester. Filters were incubated with Betaplate Scint and thymidine incorporation determined with Trilux/Betaplate counter showing the percentage of cells incorporated with ^3H-thymidine into the DNA helix.
# [5] = test system: MCF7; experiment: as above; type: cell-based; conditions: Homo sapiens, 72 h, 3 days treatment, read-out: IC50 (50 % inhibition of growth)
# Method: as §2, §3
# [6] = test system: MDA-MB-231; experiment: as above; type: cell-based; conditions: Homo sapiens, 72 h; MDA-MB-231, thymidine incorporation, 3 days treatment; read-out: IC50 (50 % inhibition of growth)
# Method: as §2, §3
# [7] = test system: MDA-MB-231 breast cancer cells; experiment: Microtubule imaging (anti-tubulin and Hoechst staining); type: cell-based, human; conditions: MDA-MB-231, 16 h; for Microtubule arrangement: FITC anti-tubulin staining
# Method: Cells were grown on a glass slide with and without inhibitors, fixed by 4 % paraformaldehyde, permeabilised by 0.5 % Triton X-PBS and incubated with 5 % BSA/PBS containing FITC-labelled anti-tubulin antibody. Microtubule arrangement was monitored by fluorescence staining of microtubules using anti-tubulin and analysed by fluorescent microscopy using Floid imaging station (460× magnification). Nucleus was stained with 2 μg/ml Hoechst stain (Life Technology) for 10 min at room temperature. Hoechst stain emits blue fluorescence when bound to double strand DNA.
# [8] = test system: MDA-MB-231 breast cancer cells; experiment: Cell cycle distribution by flow cytometry; type: cell-based, human; conditions: MDA-MB-231, 1 μM, 24 h
# Method: as §1
# [9] = Aqueous solubility; type: physicochemical
# [10] = test system: HCT116; experiment: Combination growth inhibition with cytotoxic drugs (Bliss model); type: cell-based, human; conditions: HCT116, derivative 3 50 nM plus paclitaxel
# Method: as §3
# (§4) As described previously for everolimus and other inhibitors, we employed the Bliss additivism model to classify the drug combinations as additive, synergistic or antagonistic. A theoretical curve was calculated for combined inhibition using the equation Ebliss = (EA + EB) − (EA × EB), where EA and EB are the fractional inhibitions obtained by drug A alone and drug B alone at specific concentrations. Ebliss is the fractional inhibition that would be expected if the effects of the two drugs were additive. The difference (Bliss) in the experimentally measured fractional inhibition (Expt) and Ebliss are defined as synergism […], additive (Expt = Ebliss), and antagonism […]. Bliss = 0 would indicate the combination is additive; Bliss > 0 would indicate the percentage increase in maximal inhibition above additivity (synergy); and Bliss < 0 would indicate the percentage decrease in maximal inhibition below additivity (antagonism). The data were analysed using a one-way ANOVA coupled with multiple comparisons versus treatment control applying the Holm-Sidak method correction, where p < 0.05 denotes a statistically significant difference.
# [11] = test system: MDA-MB-231; experiment: as above; type: cell-based, human
# Method: as §3, §4
# [12] = Mouse plasma pharmacokinetics; type: in vivo; conditions: ip, male CD-1 mice, 10 mg/Kg intraperitoneal
# Method: (§5) Male CD-1 mice were obtained from Vernon Jansen Unit (University of Auckland) and housed in cages with a 12-hour light/dark cycle and received sterilized food and water ad libitum. Studies and procedures were conducted with prior approval of the Ethics Committee of the University of Auckland (AEC approval number 1190). Derivative 3 was prepared in 20 % HP-β CD as a fine yellow suspension, and administered (at 10 mg/Kg) as intraperitoneal bolus injection. Blood samples were collected via a terminal cardiac bleeding (n = 3 mice/time) at 0.167, 0.5, 1, 2 and 6 h post dose. Blood was collected in ice cold K2-EDTA tubes and kept on ice. All samples were centrifuged at 6500 rpm for 5 min at room temperature, obtained plasma were stored at −80 °C until analysed by LC–MS/MS.
# Briefly, plasma samples were assayed for derivative 3 using liquid chromatography-tandem mass spectrometry (LC–MS/MS) method. Briefly, derivative 3 was spiked in the drug mouse plasma to obtain a concentration 0.003, 0.03, 0.3, 3, 10 and 30 µM to construct a calibration curve. Derivative 1 (a structural analogue of 3) was used as an internal standard in LC–MS/MS assay at a concentration of 0.5 μM added to acetonitrile. Drug was extracted from plasma using direct protein precipitation with ice cold acetonitrile (1:4 v/v) and quantified by peak area ratio of 3 versus 1 using a calibration curve prepared with derivative 3 as outlined above. LC–MS/MS used was Agilent 6410b with multimode ion source operated in atmospheric pressure chemical ionization (APCI) positive mode attached to an Agilent 1200 series HPLC system. LC–MS/MS used an Agilent Zorbax SB-C18 column (2.1 × 50 mm, 5 µM, USA) operated at 35 °C, at a flow rate 0.5 mL/min with a gradient consisting of 0.01 % formic acid in MilliQ water (Millipore, USA) and 0.01 % formic acid in 80 % acetonitrile-20 % MilliQ water. The MS1 and MS2 were operated at unit resolution in the multiple reaction monitoring (MRM) mode, monitoring the transition of the protonated molecular ions at m/z 368 to the product ions at m/z 245 for derivative 3 and monitoring the transition of the protonated molecular ions at m/z 372 to the product ions at m/z 245 for derivative 1 (internal standard). […] The lower limit of quantification for derivative 3 in plasma was 0.003 μM.
# Mean mouse plasma-time data for derivative 3 was analysed with non-compartmental method using Phoenix WinNonlin 6.2 (Pharsight Corporation, Mountain View, CA) as shown in Table 1.
# [13] = Tolerability in mice after intraperitoneal injection; type: in vivo; conditions: 10 mg/Kg intraperitoneal injection, 20 % HP-β CD
# Method: as §5
# Derivative 3 was chosen for a small pharmacokinetic study.
# [14] = test system: T47D; experiment: Cell proliferation assay (3H-thymidine incorporation, 3 days); type: cell-based, human; conditions: 3 days treatment
# Method: as §2, §3
compound,measurement,setting,value
"CC[C@@]1(O)C(=O)OCc2c1cc1n(c2=O)Cc2cc3ccccc3nc2-1 [camptothecin, reference compound]",Proportion of cells with high γ-H2AX phosphorylation,[1],69%
Nc1c(C(=O)Nc2cccc(Cl)c2)sc2nc3c(cc12)C(=O)CCC3 [derivative 1],Cell cycle effect,[2],caused G2/M arrest
COc1cccc(NC(=O)c2sc3nc4c(cc3c2N)C(=O)CCC4)c1 [derivative 3],Effect on increase in intracellular calcium levels induced by EGF,[3],no effect
same,IC50,[4],< 100 nM
same,IC50,[5],< 100 nM
same,IC50,[6],< 100 nM
same,Cell morphology,[7],membrane blebbing
same,Microtubule arrangement,[7],No microtubule bundles were observed
same,Nuclear phenotype,[7]; Hoechst staining,abnormal nuclear phenotype and possessed multinuclear cells
same,Cell cycle effect,[8],induce G2/M phase cell cycle arrest
same,Aqueous solubility,[9],poor
same,Drug interaction with paclitaxel (Bliss),[10],Synergism
same,Drug interaction with camptothecin (Bliss),"[11]; MDA-MB-231, derivative 3 50 nM plus camptothecin",only additive effects
same,Drug interaction with doxorubicin (Bliss),"[11]; MDA-MB-231, derivative 3 50 nM plus doxorubicin",only additive effects
same,Drug interaction with paclitaxel (Bliss),"[11]; MDA-MB-231, derivative 3 50 nM plus paclitaxel",synergistic effect
same,half-life,"[12]; male, CD-1, mouse, 10 mg/kg, read-out: t1/2 (elimination half-life)",> 240 min
same,k el,"[12]; mouse, 20 % HP-β CD suspension, read-out: Ke (elimination rate constant) (converted)",4.72e-06 s⁻¹
same,AUC(0-inf),"[12]; mouse, extrapolated to infinity",0.19 µM·h
same,Tmax,"[12]; mouse, post injection, read-out: Time of maximal plasma concentration (converted)",30 min
same,Cmax,"[12]; mouse, read-out: Cmax (maximum concentration in plasma)",87 nM
same,AUC(0-t),"[12]; mouse, up to 6 h, read-out: AUC0–6 h",0.13 µM·h
same,DNA damage (γH2AX),[1],did not initiate DNA damage
same,Proportion of cells with high γ-H2AX phosphorylation,[1],4%
same,Tolerability,[13],well tolerated with no acute reaction observed
Nc1c(C(=O)Nc2cccc3ccccc23)sc2nc3c(cc12)C(=O)CCC3 [derivative 5],IC50 (50 % inhibition of growth),[14],not reached
"CC(=O)O[C@H]1C(=O)[C@@]2(C)[C@H]([C@H](OC(=O)c3ccccc3)[C@]3(O)C[C@H](OC(=O)[C@H](O)[C@@H](NC(=O)c4ccccc4)c4ccccc4)C(C)=C1C3(C)C)[C@]1(OC(C)=O)CO[C@@H]1C[C@@H]2O [paclitaxel, reference compound]",Microtubule arrangement,[7],shortened and bundling of microtubules
